Active and inactive are the calls of the source. The rule behind the calls is not given here.

The test system of the assay is Spodoptera littoralis. As to the kind of experiment: Insecticidal activity against Spodoptera littoralis after 6 days. The class given is functional, organism-based.

Regarding `CC1=CC(O)N(CCCCNC(=O)/C=C/c2ccccc2)C1=O` (configuration not stated), the outcome was inactive. On to `C=C(C(=O)NCCCCNC(=O)/C=C/c1ccccc1)[C@@H](O)CO`, for which the result was inactive.
